The test addresses T1, Human BCL-XL protein (N-terminal HiBiT tagged BCL-XL in HT1080 cells) (Homo sapiens, UniProt Q07817).
T1 construct: expressed in transfected cells; host or cells: HT-1080 (ATCC CCL-121), stably transduced with lentivirus pLV-UBC-N-HiBiT-BCL-XL-PGK-puro and selected with puromycin
As to the kind of experiment: HiBiT based degradation assay. In kind it is cell-based. To be noted: HT1080 cells expressing HiBiT-BCL-XL, 24 h; for Ymin (24 h): BCL-XL degradation normalized with DMSO control; for DC50: BCL-XL degradation, read-out: EC50 (24 h). The essentials: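 HT1080 cells stably transduced by lentivirus with N-terminally HiBiT-tagged human BCL-XL and kept under 1 μg/mL puromycin selection were seeded at three thousand cells per well in 40 μL RPMI 1640 into 384-well plates pre-spotted with compounds across a concentration range. Luminescence was read on a PHERAstar FSX, normalized to DMSO, and fitted with a four-parameter logistic model.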
(In general: HiBiT is a short tag that completes a luciferase, so light tracks the accessible tagged protein.)

The structures appear in SMILES notation.

T1 sequence (Q07817 whole entry): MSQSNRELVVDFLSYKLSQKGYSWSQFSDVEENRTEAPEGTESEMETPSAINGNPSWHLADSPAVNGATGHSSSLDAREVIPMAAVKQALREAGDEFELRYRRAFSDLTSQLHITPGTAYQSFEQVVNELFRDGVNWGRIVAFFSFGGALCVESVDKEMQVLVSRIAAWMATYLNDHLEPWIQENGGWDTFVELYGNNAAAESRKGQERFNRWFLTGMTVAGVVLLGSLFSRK

Consider `Cc1c(O[C@H]2CC[C@H](CCCCN3CCN(c4ccc5c(C6CCC(=O)NC6=O)nn(C)c5c4)CC3(C)C)CC2)cccc1-c1ccc(N2CCc3cccc(C(=O)Nc4nc5ccccc5s4)c3C2)nc1C(=O)O` (stereo partly drawn) [Compound 323a, 6-(8-(benzo[d]thiazol-2-ylcarbamoyl)-3,4-dihydroisoquinolin-2(1H)-yl)-3-(3-(((1s,4r)-4-(4-(4-(3-(2,6-dioxopiperidin-3-yl)-1-methyl-1H-indazol-6-yl)-2,2-dimethylpiperazin-1-yl)butyl)cyclohexyl)oxy)-2-methylphenyl)picolinic acid], for which the “Ymin (24 h)” value is recorded as “A (Ymin < 50%)” and the DC50 was < 100 nM.

With `Cc1c(O[C@H]2CC[C@H](CCCCN3CCN(c4ccc5c(C6CCC(=O)NC6=O)nn(C)c5c4C)CC3)CC2)cccc1-c1ccc(N2CCc3cccc(C(=O)Nc4nc5ccccc5s4)c3C2)nc1C(=O)O` (stereo partly drawn) [Compound 324a, 6-(8-(benzo[d]thiazol-2-ylcarbamoyl)-3,4-dihydroisoquinolin-2(1H)-yl)-3-(3-(((1s,4r)-4-(4-(4-(3-(2,6-dioxopiperidin-3-yl)-1,7-dimethyl-1H-indazol-6-yl)piperazin-1-yl)butyl)cyclohexyl)oxy)-2-methylphenyl)picolinic acid], the “Ymin (24 h)” value is recorded as “A (Ymin < 50%)” and the DC50 is < 100 nM.

Regarding `Cc1cc2c(C3CCC(=O)NC3=O)nn(C)c2cc1N1CCN(CCCC[C@H]2CC[C@H](Oc3cccc(-c4ccc(N5CCc6cccc(C(=O)Nc7nc8ccccc8s7)c6C5)nc4C(=O)O)c3C)CC2)CC1` (stereo partly drawn) [Compound 325a, 6-(8-(benzo[d]thiazol-2-ylcarbamoyl)-3,4-dihydroisoquinolin-2(1H)-yl)-3-(3-(((1s,4r)-4-(4-(4-(3-(2,6-dioxopiperidin-3-yl)-1,5-dimethyl-1H-indazol-6-yl)piperazin-1-yl)butyl)cyclohexyl)oxy)-2-methylphenyl)picolinic acid], the “Ymin (24 h)” value was “A (Ymin < 50%)” and the DC50 is < 100 nM.

Consider `Cc1c(O[C@H]2CC[C@H](CCCCN3CCC(Oc4ccc5c(C6CCC(=O)NC6=O)nn(C)c5c4)CC3)CC2)cccc1-c1ccc(N2CCc3cccc(C(=O)Nc4nc5ccccc5s4)c3C2)nc1C(=O)O` (stereo partly drawn) [Compound 326a, 6-(8-(benzo[d]thiazol-2-ylcarbamoyl)-3,4-dihydroisoquinolin-2(1H)-yl)-3-(3-(((1s,4r)-4-(4-(4-((3-(2,6-dioxopiperidin-3-yl)-1-methyl-1H-indazol-6-yl)oxy)piperidin-1-yl)butyl)cyclohexyl)oxy)-2-methylphenyl)picolinic acid], for which the “Ymin (24 h)” value was “A (Ymin < 50%)” and the DC50 was < 100 nM.

On to `Cc1c(O[C@H]2CC[C@H](CCCCN3CCC(Oc4cccc5c(C6CCC(=O)NC6=O)nn(C)c45)CC3)CC2)cccc1-c1ccc(N2CCc3cccc(C(=O)Nc4nc5ccccc5s4)c3C2)nc1C(=O)O` (stereo partly drawn) [Compound 327a, 6-(8-(benzo[d]thiazol-2-ylcarbamoyl)-3,4-dihydroisoquinolin-2(1H)-yl)-3-(3-(((1s,4r)-4-(4-(4-((3-(2,6-dioxopiperidin-3-yl)-1-methyl-1H-indazol-7-yl)oxy)piperidin-1-yl)butyl)cyclohexyl)oxy)-2-methylphenyl)picolinic acid], for which the “Ymin (24 h)” value is listed as “A (Ymin < 50%)” and the DC50 is < 100 nM.

As for `Cn1nc(C2CCC(=O)NC2=O)c2ccc(N3CCN(CCC[C@H]4CC[C@H](Oc5cccc(-c6ccc(N7CCc8cccc(C(=O)Nc9nc%10ccccc%10s9)c8C7)nc6C(=O)O)c5C(F)(F)F)CC4)CC3)cc21` (stereo partly drawn) [Compound 328a, 6-(8-(benzo[d]thiazol-2-ylcarbamoyl)-3,4-dihydroisoquinolin-2(1H)-yl)-3-(3-(((1s,4r)-4-(3-(4-(3-(2,6-dioxopiperidin-3-yl)-1-methyl-1H-indazol-6-yl)piperazin-1-yl)propyl)cyclohexyl)oxy)-2-(trifluoromethyl)phenyl)picolinic acid], the “Ymin (24 h)” value is “A (Ymin < 50%)” and the DC50 is < 100 nM.

On to `Cn1nc(C2CCC(=O)NC2=O)c2ccc(N3CCN(CCCC[C@H]4CC[C@H](Oc5cccc(-c6ccc(N7CCc8cccc(C(=O)Nc9nc%10ccccc%10s9)c8C7)nc6C(=O)O)c5)CC4)CC3)cc21` (stereo partly drawn) [Compound 329a, 6-(8-(benzo[d]thiazol-2-ylcarbamoyl)-3,4-dihydroisoquinolin-2(1H)-yl)-3-(3-(((1s,4r)-4-(4-(4-(3-(2,6-dioxopiperidin-3-yl)-1-methyl-1H-indazol-6-yl)piperazin-1-yl)butyl)cyclohexyl)oxy)phenyl)picolinic acid], for which the “Ymin (24 h)” value is on record as “A (Ymin < 50%)” and the DC50 is < 100 nM.

Turning to `Cn1nc(C2CCC(=O)NC2=O)c2ccc(N3CCN(CCC[C@H]4CC[C@H](Oc5cccc(-c6ccc(N7CCc8cccc(C(=O)Nc9nc%10ccccc%10s9)c8C7)nc6C(=O)O)c5)CC4)CC3)cc21` (stereo partly drawn) [Compound 330a, 6-(8-(benzo[d]thiazol-2-ylcarbamoyl)-3,4-dihydroisoquinolin-2(1H)-yl)-3-(3-(((1s,4r)-4-(3-(4-(3-(2,6-dioxopiperidin-3-yl)-1-methyl-1H-indazol-6-yl)piperazin-1-yl)propyl)cyclohexyl)oxy)phenyl)picolinic acid], the “Ymin (24 h)” value was “A (Ymin < 50%)” and the DC50 was < 100 nM.

In the case of `Cc1c(O[C@H]2CC[C@H](CCCN3CCN(c4ccc5c(C6CCC(=O)NC6=O)nn(C)c5c4C)CC3)CC2)cccc1-c1ccc(N2CCc3cccc(C(=O)Nc4nc5ccccc5s4)c3C2)nc1C(=O)O` (stereo partly drawn) [Compound 334a, 6-(8-(benzo[d]thiazol-2-ylcarbamoyl)-3,4-dihydroisoquinolin-2(1H)-yl)-3-(3-(((1s,4r)-4-(3-(4-(3-(2,6-dioxopiperidin-3-yl)-1,7-dimethyl-1H-indazol-6-yl)piperazin-1-yl)propyl)cyclohexyl)oxy)-2-methylphenyl)picolinic acid], the “Ymin (24 h)” value was “A (Ymin < 50%)” and the DC50 is < 100 nM.

On to `Cc1cc2c(C3CCC(=O)NC3=O)nn(C)c2cc1N1CCN(CCC[C@H]2CC[C@H](Oc3cccc(-c4ccc(N5CCc6cccc(C(=O)Nc7nc8ccccc8s7)c6C5)nc4C(=O)O)c3C)CC2)CC1` (stereo partly drawn) [Compound 335a, 6-(8-(benzo[d]thiazol-2-ylcarbamoyl)-3,4-dihydroisoquinolin-2(1H)-yl)-3-(3-(((1s,4r)-4-(3-(4-(3-(2,6-dioxopiperidin-3-yl)-1,5-dimethyl-1H-indazol-6-yl)piperazin-1-yl)propyl)cyclohexyl)oxy)-2-methylphenyl)picolinic acid], for which the “Ymin (24 h)” value is “A (Ymin < 50%)” and the DC50 is < 100 nM.

In the case of `Cc1c(O[C@H]2CC[C@H](CCCN3CCN(c4ccc5c(C6CCC(=O)NC6=O)nn(C)c5c4)CC3(C)C)CC2)cccc1-c1ccc(N2CCc3cccc(C(=O)Nc4nc5ccccc5s4)c3C2)nc1C(=O)O` (stereo partly drawn) [Compound 336a, 6-(8-(benzo[d]thiazol-2-ylcarbamoyl)-3,4-dihydroisoquinolin-2(1H)-yl)-3-(3-(((1s,4r)-4-(3-(4-(3-(2,6-dioxopiperidin-3-yl)-1-methyl-1H-indazol-6-yl)-2,2-dimethylpiperazin-1-yl)propyl)cyclohexyl)oxy)-2-methylphenyl)picolinic acid], the “Ymin (24 h)” value is listed as “A (Ymin < 50%)” and the DC50 is < 100 nM.

Regarding `Cc1c(O[C@H]2CC[C@H](CCCN3CCC(Oc4ccc5c(C6CCC(=O)NC6=O)nn(C)c5c4)CC3)CC2)cccc1-c1ccc(N2CCc3cccc(C(=O)Nc4nc5ccccc5s4)c3C2)nc1C(=O)O` (stereo partly drawn) [Compound 337a, 6-(8-(benzo[d]thiazol-2-ylcarbamoyl)-3,4-dihydroisoquinolin-2(1H)-yl)-3-(3-(((1s,4r)-4-(3-(4-((3-(2,6-dioxopiperidin-3-yl)-1-methyl-1H-indazol-6-yl)oxy)piperidin-1-yl)propyl)cyclohexyl)oxy)-2-methylphenyl)picolinic acid], the “Ymin (24 h)” value is reported as “A (Ymin < 50%)” and the DC50 is < 100 nM.

Turning to `Cc1c(O[C@H]2CC[C@H](CCCN3CCC(Oc4cccc5c(C6CCC(=O)NC6=O)nn(C)c45)CC3)CC2)cccc1-c1ccc(N2CCc3cccc(C(=O)Nc4nc5ccccc5s4)c3C2)nc1C(=O)O` (stereo partly drawn) [Compound 338a, 6-(8-(benzo[d]thiazol-2-ylcarbamoyl)-3,4-dihydroisoquinolin-2(1H)-yl)-3-(3-(((1s,4r)-4-(3-(4-((3-(2,6-dioxopiperidin-3-yl)-1-methyl-1H-indazol-7-yl)oxy)piperidin-1-yl)propyl)cyclohexyl)oxy)-2-methylphenyl)picolinic acid], the “Ymin (24 h)” value is given as “A (Ymin < 50%)” and the DC50 was < 100 nM.

For `Cc1c(O[C@H]2CC[C@H](CCCCN3CCN(c4ccc5c(C6CCC(=O)NC6=O)nn(C)c5c4)[C@@H](C(F)(F)F)C3)CC2)cccc1-c1ccc(N2CCc3cccc(C(=O)Nc4nc5ccccc5s4)c3C2)nc1C(=O)O` (stereo partly drawn) [Compound 339a, 6-(8-(benzo[d]thiazol-2-ylcarbamoyl)-3,4-dihydroisoquinolin-2(1H)-yl)-3-(3-(((1s,4r)-4-(4-((3R)-4-(3-(2,6-dioxopiperidin-3-yl)-1-methyl-1H-indazol-6-yl)-3-(trifluoromethyl)piperazin-1-yl)butyl)cyclohexyl)oxy)-2-methylphenyl)picolinic acid], the “Ymin (24 h)” value is “B (50% ≤ Ymin < 70%)” and the DC50 is < 100 nM.

For the compound `Cc1c(O[C@H]2CC[C@H](CCC(C)(C)N3CCN(c4ccc5c(C6CCC(=O)NC6=O)nn(C)c5c4)CC3)CC2)cccc1-c1ccc(N2CCc3cccc(C(=O)Nc4nc5ccccc5s4)c3C2)nc1C(=O)O` (stereo partly drawn) [Compound 340a, 6-(8-(benzo[d]thiazol-2-ylcarbamoyl)-3,4-dihydroisoquinolin-2(1H)-yl)-3-(3-(((1s,4r)-4-(3-(4-(3-(2,6-dioxopiperidin-3-yl)-1-methyl-1H-indazol-6-yl)piperazin-1-yl)-3-methylbutyl)cyclohexyl)oxy)-2-methylphenyl)picolinic acid], the “Ymin (24 h)” value is listed as “A (Ymin < 50%)” and the DC50 was < 100 nM.
